Active and inactive are the calls of the source. The rule behind the calls is not given here.
Tests used:
[1] = tested on: Rattus norvegicus; assay: Antihyperglycemic activity in starch fed Rattus norvegicus Wistar (rat) assessed as reduction of AUC of plasma glucose level at 50 mg/kg administered 15 min before starch feeding; format: functional, organism-based; set-up: dose 50 mg/kg
[2] = tested on: Rattus norvegicus; assay: Antihyperglycemic activity in starch fed Rattus norvegicus Wistar (rat) assessed as reduction of plasma glucose level at 50 mg/kg administered 15 min before starch feeding measured up to 60 min; format: functional, organism-based; set-up: dose 50 mg/kg
[3] = biological target: Lysosomal alpha-glucosidase (Rattus norvegicus) (UniProt Q6P7A9); assay: Inhibition of rat intestinal alpha-glucosidase using p-nitrophenyl- alpha-D-glucopyranoside as substrate at 300 uM preincubated for 5 min before addition of substrate measured after 10 min
Chain of Lysosomal alpha-glucosidase (Rattus norvegicus) (Q6P7A9 whole entry): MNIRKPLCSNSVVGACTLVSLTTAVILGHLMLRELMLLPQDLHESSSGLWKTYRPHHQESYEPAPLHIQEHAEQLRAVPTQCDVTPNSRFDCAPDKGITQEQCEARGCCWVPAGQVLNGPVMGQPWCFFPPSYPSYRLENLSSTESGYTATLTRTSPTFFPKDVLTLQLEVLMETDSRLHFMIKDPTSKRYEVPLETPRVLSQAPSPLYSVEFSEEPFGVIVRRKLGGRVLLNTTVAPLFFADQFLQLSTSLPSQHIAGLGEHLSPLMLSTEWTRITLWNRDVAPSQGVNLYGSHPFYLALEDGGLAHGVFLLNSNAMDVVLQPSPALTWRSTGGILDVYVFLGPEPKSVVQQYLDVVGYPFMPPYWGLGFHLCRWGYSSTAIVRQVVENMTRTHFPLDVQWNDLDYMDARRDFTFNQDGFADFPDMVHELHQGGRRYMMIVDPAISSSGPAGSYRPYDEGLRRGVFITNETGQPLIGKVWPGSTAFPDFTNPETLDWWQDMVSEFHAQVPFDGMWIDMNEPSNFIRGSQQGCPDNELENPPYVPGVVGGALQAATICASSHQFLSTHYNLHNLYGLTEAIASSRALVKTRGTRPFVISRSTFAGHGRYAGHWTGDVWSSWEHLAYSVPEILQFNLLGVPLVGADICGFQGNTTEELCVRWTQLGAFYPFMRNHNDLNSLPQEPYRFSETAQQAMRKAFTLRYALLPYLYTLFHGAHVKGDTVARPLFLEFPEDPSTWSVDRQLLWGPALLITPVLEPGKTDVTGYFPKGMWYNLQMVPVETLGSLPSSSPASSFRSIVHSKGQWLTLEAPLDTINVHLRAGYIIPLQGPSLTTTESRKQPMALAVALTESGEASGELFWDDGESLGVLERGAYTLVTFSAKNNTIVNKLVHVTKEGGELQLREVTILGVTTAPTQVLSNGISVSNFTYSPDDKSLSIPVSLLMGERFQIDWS

[4] = biological target: Lysosomal alpha-glucosidase (Rattus norvegicus) (UniProt Q6P7A9); assay: Inhibition of rat intestinal alpha-glucosidase using p-nitrophenyl- alpha-D-glucopyranoside as substrate at 200 uM preincubated for 5 min before addition of substrate measured after 10 min
[5] = tested on: Radical scavenging activity; assay: Antioxidant activity assessed as DPPH free radical scavenging activity at 250 uM after 20 min; format: functional
[6] = tested on: Radical scavenging activity; assay: Antioxidant activity assessed as DPPH free radical scavenging activity by measuring 50% radical scavenging concentration after 20 min; format: functional

Row | SMILES | inhibition [4] | Activity [5] | other results
1 | O=Cc1cc(Br)ccc1O | 85.8% |  | Activity [1]: Active; Activity [2]: Active; inhibition [3]: 85.8%
2 | COc1ccc(/N=C/c2cc(Br)ccc2O)cc1 | Active | 48.7% | 
3 | O=[N+]([O-])c1ccc(/N=C/c2ccccc2O)cc1 | 95.6% | inactive | 
4 | C/C(=N\NC(=O)c1ccccc1)c1ccc(C)cc1 | 31.6% |  | 
5 | Oc1ccc(Br)cc1/C=N/c1ccc(Cl)cc1 | inactive | 13.5% | 
6 | O=[N+]([O-])c1ccc(/N=C/c2cc(Br)ccc2O)cc1 | Active | inactive | 
7 | C/C(=N\CC/N=C(\C)c1ccccc1)c1ccccc1 | Active |  | 

The next lines start with results.

Row | inhibition [4] | SMILES | Activity [5] | other results
8 | 29.1% | Oc1ccccc1/C=N/CC/N=C/c1ccccc1O | inactive | 
9 | Active | Oc1ccc(Br)cc1/C=N/c1ccccc1 | 9.27% | 
10 | 6.63% | Oc1ccccc1/C=N/c1ccc(Cl)cc1 | inactive | 
11 | 11.4% | COc1ccc(/N=C/c2ccccc2O)cc1 |  | 
12 | Active | Oc1ccccc1/C=N/c1ccccc1 | 9.29% | 
13 | 14.4% | Oc1ccc(Br)cc1/C=N/CC/N=C/c1cc(Br)ccc1O | inactive | 
14 | 57.9% | Oc1ccccc1/C=N\c1ccccc1/N=C/c1ccccc1O | 75.3% | Activity [6]: 115 µM
